Among the data in paper PMC12074795, “Synthesis and biological evaluation of esterified anti-inflammatory drugs with ethylene glycol linkers: cytotoxicity, anti-inflammatory and antioxidant properties” (Royal Society Open Science, 2025) are IC50 and EC50 values, retold here.

pEC50, pIC50: −log10 of the molar value. Where two headings read alike, the source gives them in different places.

The test system of assay [1] is nitric oxide production by macrophages activated with Saccharomyces cerevisiae. Description: Inhibition of nitric oxide production by stimulated macrophages (Griess). Type of assay: cell-based, mouse. As to the method: Second, the anti-inflammatory activity of these compounds at a maximum concentration of 0.22 mM was evaluated by assessing their ability to inhibit the synthesis of NO (figure 2).
Peritoneal macrophages were isolated from four eight-week-old, 25 g Wistar mice by intraperitoneal injection of 0.5 ml of 2% starch solution (inflammatory agent) to stimulate their production. Four days later, the animals were sacrificed, and 5 ml of phosphate buffered saline (PBS) buffer (0.1 M, pH 7.4) was injected into their peritoneal cavity with a syringe. After massage of the peritoneal cavity, the injected buffer was slowly aspirated through a small abdominal incision. The resulting solution containing macrophages was transferred to 15 ml Falcon tubes and kept in ice. The fluid obtained was then centrifuged (1620 g, 4°C and 10 min), and the supernatant was removed. The erythrocytes were removed by osmotic shock. The cells were suspended in 1 ml hypotonic 0.05 M NaCl solution for 1 min. Isotonicity was then restored by adding 1 ml of 0.25 M NaCl. The mixture was centrifuged (1620 g, 4°C and 10 min) and the resulting pellet was suspended in 2 ml of Dulbecco's modified eagle medium (DMEM) (containing 0.2% streptomycin and penicillin, 0.4 g l^−1 bovine serum albumin and 3.7 g l^−1 NaHCO3 in PBS and filtered with 0.22 µm Millipore filters).
In the 96-well plate, 150 µl of a cell suspension (10^4 cells per well) were distributed in different wells. In the test and positive control wells, 50 µl of Saccharomycces cerevisiae (250 µg ml^–1) was added to stimulate the production of pro-inflammatory cytokines. Meanwhile 50 µl of DMEM was added in the negative control wells. The microplate was incubated at 37°C (5% CO2) for 1 h, then 50 µl of solution of compounds or baicalin at different concentrations (0.241 × 10^–3, 2.23 × 10^–3, 22.4 × 10^–3, 220 × 10^–3 and 2410 × 10^–3 mM) were added to the test wells and 50 µl DMEM to the positive (cells activated with Saccharomyces cerevisiae) and negative (inactivated cells) control wells. After 3 h of incubation at 37°C (5% CO2), the cell supernatants were used for NO [41].
A total of 100 µl of the previously obtained cell supernatants were mixed with 100 µl of Griess reagent (1% sulphanylamide, 0.1% naphthyl ethylenediamine dihydrochloride in 2.5% v/v phosphoric acid). The mixture was incubated for 10 min at room temperature and the absorbance is read at 550 nm. The amount of nitrite was measured using the standard sodium […] curve. The percentage inhibition of nitric oxide synthesis was calculated using the following formula:
%inhibition=[(ODcontrol−ODassay/ODcontrol]×100).
In general terms: Griess reagent forms a coloured azo dye with nitrite.

Assay [2] can be described thus: DPPH radical scavenging test. The assay is classed as biochemical. The note with it: 517 nm, 30 min. The method, then: The in vitro antioxidant ability of the compounds synthesized in this work was evaluated using three different assays, including (i) the ABTS radical cation reduction-decolorization test, which uses the technique of Khan et al. consisting of the reduction of the cation radical by an antioxidant through the discoloration measured by absorption at the wavelength of 734 nm; (ii) interaction with the stable free radical DPPH, based on Bassene’s method, in which the scavenging of DPPH radicals is carried out by a colorimetric method consisting of the reduction of the DPPH radical, determined by its absorption at a wavelength of 517 nm; and (iii) the FRAP test according to the protocol of Path Canada, based on the ability of a substance to reduce Fe^3+ ions to Fe^2+ ions, which, in the presence of 1,10-phenanthroline, form a red-orange complex whose optical density can be measured at 505 nm.
The DPPH radical trapping protocol is based on Bassene’s method, modified for colorimetric analysis. DPPH is a stable purple organic nitrogen radical that absorbs light at 517 nm. When an anti-free radical agent is present, DPPH is reduced to a stable yellow compound, indicated by a loss of colour between 470 and 517 nm. A 0.02% DPPH solution was made with ethanol and stored in a sealed jar in the dark. Stock solutions of the synthesized compounds were prepared by dissolving 100 mg of each in 1 ml of DMSO, and the final concentration of DMSO concentration in the first well was 0.5%. These stocks were then diluted to achieve concentrations (500, 250, 125, 62.5, 31.25, 15.625 and 7.8125)/Mi in mM (Mi: molecular weight of each synthetic compound). Each dilution (25 µl) was put to the wells and 75 µl of the DPPH solution (0.02%) were added. Optical densities were measured at 517 nm after 30 min of incubation in the dark. The negative control used DPPH alone, while the positive control used gallic acid treated with solutions of the synthesized compounds at final concentrations (50, 25, 12.5, 6.25, 3.125, 1.5625 and 0.78125)/Mi in mM. Synthesized compounds were also tested alone to assess fluorescence.
Assays were performed in duplicate, and results were averaged. Percentage inhibition (PI), reflecting the antioxidant activity related to the DPPH˙ radical scavenging effect, was calculated using the following formula:
(PI)=Acontrol−Atest/Acontrol×100,
where Acontrol = absorbance of the control sample and Atest = absorbance of the tested sample.
The percentages of scavenging or 50% reduction were calculated using gallic acid as a standard for 100% reduction. The concentration of radical scavengers needed to neutralize 50% of free radicals, referred to as SC50, was determined using GraphPad Prism 8.0.1 software (244).
For orientation: DPPH is a stable violet radical that fades when it is reduced.

[3] abbreviates: Mus musculus, Macrophage, 3 h, peritoneal macrophages activated with Saccharomyces cerevisiae, 3 h incubation, Griess reagent, read-out: IC50 of NO inhibition assay.
Setting [4] is: first replicate, read-out: DPPH SC50(1).
Where [5] appears, read: mean of duplicate, read-out: DPPH mean SC50.
Where [6] appears, read: second replicate, read-out: DPPH SC50(2).
Where [7] appears, read: Mus musculus, Macrophage, classified according to the IC50 values of table 1, read-out: anti-inflammatory activity (class by IC50 of NO inhibition).
Where [8] appears, read: peritoneal macrophages activated with Saccharomyces cerevisiae, 3 h incubation, Griess reagent, read-out: IC50 of NO inhibition assay.

For the compound `CC(C)Cc1ccc(C(C)C(=O)O)cc1` (stereo not drawn) [Compound 1, ibuprofen, reference compound], the pIC50 (as a rule, the negative decadic logarithm of the IC50, by convention in mol/L) in assay [1] (setting [3]) is 3.48. The values for the pEC50 in assay [2] (setting [4]), in assay [2] (setting [5]) and in assay [2] (setting [6]) were 2.01, 2.00 and 1.99, respectively.
On to `CC(C)Cc1ccc(C(=O)OCCOC(=O)C(C)c2ccc(CC(C)C)cc2)cc1` (stereo not drawn) [Compound 2, 2-((2-(4-isobutylphenyl)propanoyl)oxy)ethyl 4-isobutylbenzoate], for which the pIC50 is 3.24 in assay [1] (setting [3]) and greater than 3.00 in assay [1] (setting [7]). Besides, the results for the pEC50 in assay [2] (setting [4]), in assay [2] (setting [5]) and in assay [2] (setting [6]) were 2.30, 2.31 and 2.32, respectively.
Regarding `CC(C)Cc1ccc(C(C)C(=O)OCCO)cc1` (stereo not drawn) [Compound 3, 2-hydroxyethyl 2-(4-isobutylphenyl)propanoate], in assay [1] (setting [7]), the pIC50 was greater than 3.00. The pEC50 in assay [2] (setting [4]), in assay [2] (setting [5]) and in assay [2] (setting [6]) was 1.98 in each case.
Take `CCCCCCCCCCCC(=O)OCCOC(=O)C(C)c1ccc(CC(C)C)cc1` (stereo not drawn) [Compound 5a, 2-((2-(4-isobutylphenyl)propanoyl)oxy)ethyl dodecanoate]: the pIC50 in assay [1] (setting [3]) is no less than 4.30; in assay [1] (setting [7]) it was greater than 3.00; in assay [1] (setting [8]) it was 4.30. Besides, the results for the pEC50 in assay [2] (setting [4]), in assay [2] (setting [5]) and in assay [2] (setting [6]) were 2.46, 2.45 and 2.45, respectively.
Take `O=C(OCCO)c1ccccc1O` [Compound 7, 2-hydroxyethyl 2-hydroxybenzoate]: the pIC50 in assay [1] (setting [3]) was 4.30. Moreover, the pEC50 in assay [2] (setting [4]) was 1.91; in assay [2] (setting [5]), 1.92; in assay [2] (setting [6]), 1.92.
For `O=C(O)/C=C/c1ccccc1` [Compound 11, cinnamic acid, reference compound], the pIC50 in assay [1] (setting [3]) is 3.47. Further, the figures for the pEC50 in assay [2] (setting [4]), in assay [2] (setting [5]) and in assay [2] (setting [6]) were 1.95, 1.96 and 1.96, respectively.
For `O=C(/C=C/c1ccccc1)OCCOC(=O)c1ccccc1O` [Compound 12, (E)-2-(cinnamoyloxy)ethyl 2-hydroxybenzoate], the pIC50 in assay [1] (setting [3]) is 3.77. Further, the pEC50 in assay [2] (setting [4]), in assay [2] (setting [5]) and in assay [2] (setting [6]) was 2.06 throughout.
Regarding `O=C(OCCOC(=O)c1ccccc1O)c1ccccc1O` [Compound 13, Ethane-1,2-diyl bis(2-hydroxybenzoate)], the pIC50 in assay [1] (setting [3]) was 3.05. Further, the pEC50 in assay [2] (setting [4]) is 2.18; in assay [2] (setting [6]), 2.19.
For the compound `CC(C)Cc1ccc(C(C)C(=O)OCCOC(=O)C=Cc2ccccc2)cc1` (stereo not drawn) [Compound 14, 2-((2-(4-isobutylphenyl)propanoyl)oxy)ethyl cinnamate], the pIC50 in assay [1] (setting [3]) is no less than 4.30; in assay [1] (setting [7]), greater than 3.00; in assay [1] (setting [8]), 4.30. Also, the pEC50 is 2.18 in assay [2] (setting [4]), 2.21 in assay [2] (setting [5]) and 2.18 in assay [2] (setting [6]).
In the case of `CCCCCCCCCCCC(=O)OCCOC(=O)c1ccccc1O` [DEW4a], the pIC50 was less than 3.00 in assay [1] (setting [3]) and 2.87 in assay [1] (setting [8]). The pEC50 in assay [2] (setting [4]), in assay [2] (setting [5]) and in assay [2] (setting [6]) was 2.24 in each case.
